# Assay results from patent publication US20220249415A1, “COMPOSITION OF AZELAIC ACID HAVING ADIPOSE TRIGLYCERIDE HYDROLYSIS EFFECT” (Korea University Research and Business Foundation, priority 2018, published 2022).
# Tests used:
# hAMSC cells = test: qPCR of anti-obesity gene in hAMSC cells, with OR2K2 knock-down; type: cell-based, human
# Protocol: In-vitro equivalence confirmation: HepG2 cells, which are a human liver tissue cell line, and hAMSC cells, which are a human adipocyte line, were treated with azelaic acid and the anti-obesity gene was measured through a qPCR method.
# 3T3-L1 adipocytes = test: cAMP assay (ELISA kit) in 3T3-L1 adipocytes; type: cell-based, mouse; settings: 50 μM azelaic acid, 18 hours
# Protocol: Therefore, changes in concentrations of cAMP, IP-one (metabolite of IP3), and calcium, which are second messengers by azelaic acid corresponding to the Olfr544 ligand, in 3T3-L1 adipocytes were measured. Since IP3 has low stability to thereby be easily decomposed to IP-one, an amount of intracellular IP-One (metabolite of IP3) was quantified instead of IP3.
# cAMP assay uses the principle to estimate a production amount of cAMP corresponding to a second messenger of a GPCR receptor activated by a ligand using a cAMP standard calibration curve. A 96-well plate included in a cAMP assay ELISA kit (Enzo Life science, New York, U.S.) was coated with a G×R IgG antibody, and after cAMP of a blue solution for obtaining the standard calibration curve was bound to alkaline phosphatase, the color of the blue solution was changed to yellow by a rabbit antibody. When alkaline phosphatase was activated by adding a pNpp substrate to a well bound to cAMP, a color change occurred, such that the concentration of cAMP may be measured at a wavelength of 405 nm using colorimetric analysis. In the present experiment, 1×10^4 3T3-L1 adipocytes were seeded in each well of the 96-well plate and differentiated, and then treated with 50 μM azelaic acid and 1 μM Foskolin corresponding to a positive control for 18 hours. Then, the concentration of cAMP was measured by the method described above.
# [1] = system: 3T3-L1 adipocytes in which the Olfr544 gene was knocked-down; test: cAMP, PKA activity and HSL phosphorylation in adipocytes in which Olfr544 gene was knocked-down; type: cell-based, mouse; settings: Olfr544 shRNA transfected adipocytes treated with azelaic acid for 2 hours
# Source text: After the Olfr544 gene was knocked-down in the mouse adipocytes, cAMP assay was confirmed by the method described in Example 4, PKA activity was confirmed by the method described in Example 5, and phosphorylation of HSL protein was confirmed by the method described in Example 6.
# normal mice = test: Energy metabolism by indirect calorimetry in normal mice; type: in vivo, mouse; settings: 50 mg/kg oral, 6 weeks
# Source text: Relative metabolic rates were confirmed by measuring consumption amount of O2 and production amounts of CO2 of an azelaic acid administration group and a control group using indirect calorimetry.
smiles,measurement,setting,value
"O=C(O)CCCCCCCC(=O)O [azelaic acid, nonanedioic acid]",expression of a triglyceride hydrolysis gene (qPCR),hAMSC cells; adipocytes (hAMSC) treated with azelaic acid,increased
same,effect on gene expression when the OR2K2 gene was knocked down,hAMSC cells; human adipocyte line (hAMSC),disappear
same,concentration of intracellular cAMP,3T3-L1 adipocytes,significantly increased
same,cAMP-PKA-HSL signaling pathway,[1],all inactivated
same,consumption amount of O2,normal mice; vs control,no large difference
same,fatty acid oxidation,normal mice; vs control,increased
same,respiratory quotient (RQ),normal mice; vs control,decreased
same,total energy expenditure (EE),normal mice; vs control,no change
same,production amount of CO2,normal mice; vs control group,significantly increased
